Results as given in patent US11116217B2, “Synergistic biocidal compositions containing 5-chloro-2-methylisothiazolin-3-one” (Thor GmbH, priority 2016, dated 2021).
Marks after values point to notes of the source that are not given here.

Tested on: Pseudomonas putida (DSM 25068)
Assay: Minimum inhibitory concentration and synergy index (Kull) of CMIT combinations in Müller-Hinton broth microtiter plates
Assay type: cell-based
Settings: 48 hours at 30° C.; for synergy index: SI=Qa/QA+Qb/QB
Text: The synergism of a combination of 5-chloro-2-methylisothiazolin-3-one, containing 0.003 wt. %, in relation to the total proportion of 5-chloro-2-methyl-4-isothiazolin-3-one, of 2-methylisothiazolin-3-one, each time with a biocide/substance selected from the group of 1,2-benzisothiazolin-3-one (BIT), 2-bromo-2-nitropropane-1,3-diol (Bronopol), and zinc, was investigated for a synergistic interaction.
The test organisms used were the Gram-negative bacterium Pseudomonas putida (DSM 25068). For this, mixtures with different concentrations of the respective active substances were prepared and tested in regard to their effect on Pseudomonas putida. The testing was done in Müller-Hinton broth MHB (pH 7.0) with a cell density of 10^6 germs per ml.
The incubation time of the microtiter plates was 48 hours at 30° C. After 48 hours, the batches were evaluated for turbidity due to growth and, in addition, the optical density was determined by photometry. In this way, the minimum inhibitory concentrations (MHK) were determined for the two active substances individually and in combination.
The resulting synergism was represented numerically by calculating the synergy index (SI). The calculation was done by the customary method of F. C. Kull et al., Applied Microbiology, Vol. 9 (1961), p. 538. Loc. cit., the SI is calculated by the following formula: synergy index SI=Qa/QA+Qb/QB Qa=concentration of component A in the mixture A+B QA=concentration of component A as solitary biocide Qb=concentration of component B in the mixture A+B QB=concentration of component B as solitary biocide
If the synergy index has a value over 1, this means that an antagonism is present. If the synergy index takes on the value 1, this means that an addition of the effect of the two biocides/compounds is present. If the synergy index takes on a value below 1, this means that a synergism exists for the two biocides.

[1] = CMIT and zinc (ZnCl2), QB assumed 240 ppm
[2] = single agent, MHB pH 7.0, 10^6 germs per ml
[3] = CMIT and BIT, below 1 = synergism
[4] = CMIT and Bronopol, below 1 = synergism

Row | SMILES | synergy index [1] | concentration as solitary agent indicating an end point (minimum inhibitory concentration, QA/QB) [2] | synergy index [3] | synergy index [4] | MIC (Pseudomonas putida, DSM25068, single agent, MHB pH 7.0, 10^6 germs per ml, read-out: concentration as solitary agent indicating an end point (minimum inhibitory concentration, QA/QB))
1 | [Cl-].[Cl-].[Zn+2] [Zn, zinc chloride] | 1.00 | > 240* ppm |  |  | 
2 | Cn1sc(Cl)cc1=O [CMIT, 5-chloro-2-methylisothiazolin-3-one] | 1.00 | 1.5 ppm | 1.00 | 1.00 | 
3 | O=c1[nH]sc2ccccc12 [BIT, 1,2-benzisothiazolin-3-one] |  | 100 ppm | 1.00 |  | 
4 | O=[N+]([O-])C(Br)(CO)CO [Bronopol, 2-bromo-2-nitropropane-1,3-diol] |  |  |  | 1.00 | 15 µg/mL
